# Values joined by “and” are separate entries in the source; they are usually repeats but may differ in a detail not shown here. Equal entries are not always repeated. Where two headings read alike, the source gives them in different places.
# Experiments:
# [1] = test system: Bacillus stearothermophilus spores
# Procedure: The sterilization process was run under the following conditions:
# The trays containing the inoculated coupons and the various loads were wrapped with sterilization wrap and sealed with sterilization tape.
# The effectiveness of the sterilization process was determined by placing stainless steel coupons inoculated with >10^6 Bacillus stearothermophilus spores as biological indicators (BI's) into 3 mm×400 mm stainless steel lumens. The lumens were placed into double-wrapped sterilizer trays with the loads of medical instruments to be sterilized. At the end of the cycle, the BIs were recovered from the lumens, placed into tubes of TSB (Trypticase soy broth) medium and incubated at 55-60° C. for 14 days. The biological activity was then determined.
# (§1) The pressure inside the chamber was also monitored as a function of time. After the completion of the sterilization cycle, the chamber was vented, the equipment was removed, and the inoculated coupons were tested for growth in the medium. […] The sterilization results and the summary of the various methods of analyzing the hydrogen concentration data are shown in Table 2 below.
# [2] = for -Initial slope, k: 8.6 mg/L H2O2 injected, 6 trays, 20 min pre-plasma, first 50 seconds after maximum concentration
# Procedure: as §1
# The data were analyzed in various ways to determine whether a method could be found to quickly determine the suitability of the load for sterilization.
# FIGS. 5-8 show graphs of ln(c/c0) versus time for a validation load (FIG. 5), a heavy load (FIG. 6), a heavy load with a new towel (FIG. 7), and a heavy load with an old towel (FIG. 8).
# The initial slopes in Table 2 are recorded as the negative of the initial slopes for simplicity in recording the data.
# The final concentration is measured at the end of the diffusion step 50, prior to evacuating and generating the post-injection plasma.
# [3] = Group 7 validation loads with one towel
# [4] = Group 8 validation loads with two towels
structure (smiles),measurement,setting,value
OO [hydrogen peroxide],Fraction Positive BIs,"[1]; Group 1: validation load, 8.6 or 9.3 mg/L H2O2 injected, 6 trays, 20 min pre-plasma",0/10
same,BI's of all runs of the group,[1]; Group 1 validation loads,negative
same,Fraction Positive BIs,"[1]; Group 2: heavy load, 1 filter, 8.6 mg/L H2O2 injected, 6 trays, 20 min pre-plasma",0/10
same,Fraction Positive BIs,"[1]; Group 2: heavy load, 2 filters, 8.6 mg/L H2O2 injected, 6 trays, 20 min pre-plasma",0/10
same,Fraction Positive BIs,"[1]; Group 2: heavy load, brass, 8.6 mg/L H2O2 injected, 6 trays, 20 min pre-plasma",0/10
same,Fraction Positive BIs,"[1]; Group 2: heavy load, mat, 8.6 mg/L H2O2 injected, 6 trays, 20 min pre-plasma",0/10
same,Fraction Positive BIs,"[1]; Group 2: heavy load, 8.6 mg/L H2O2 injected, 6 trays, 20 min pre-plasma",1/10
same,"Positive BI's, total of all runs of the group",[1]; Group 2 heavy loads,1 of the 60
same,Fraction Positive BIs,"[1]; Group 3: heavy load, 1 new towel, 8.6 mg/L H2O2 injected, 6 trays, 20 min pre-plasma",6/10
same,Fraction Positive BIs,"[1]; Group 3: heavy load, 2 new towels, 8.6 mg/L H2O2 injected, 6 trays, 20 min pre-plasma",5/10
same,Fraction Positive BIs,"[1]; Group 3: heavy load, 6/8 towel, 8.6 mg/L H2O2 injected, 6 trays, 20 min pre-plasma",3/10
same,"Positive BI's, total of all runs of the group",[1]; Group 3 heavy load/new towel runs,14/30
same,Fraction Positive BIs,"[1]; Group 4: heavy load, 1 old towel, 8.6 mg/L H2O2 injected, 6 trays, 20 min pre-plasma",10/10
same,"Positive BI's, total of all runs of the group",[1]; Group 4 heavy load/old towel runs,20 of the 20
same,Fraction Positive BIs,"[1]; Group 5: validation load, initial load temperature 5° C., 9.3 mg/L H2O2 injected, 4 trays, 15 min pre-plasma",0/12
same,BI's of all runs of the group,"[1]; Group 5 cold validation loads, 15 minutes of pre-plasma, 72 BI's",negative
same,Fraction Positive BIs,"[1]; Group 6: validation load, initial load temperature 5° C., 9.3 mg/L H2O2 injected, 4 trays, no pre-plasma",0/12
same,BI's of all runs of the group,"[1]; Group 6 cold condensing validation loads, no pre-plasma",negative
same,"Positive BI's, total of all runs of the group",[1]; [3],4/72
same,"Positive BI's, total of all runs of the group",[1]; [4],3/73
same,"Initial slope, average",[2]; Group 1 runs with the validation loads,0.00983 s⁻¹
same,"-Initial slope, k","[2]; Group 2: heavy load, 1 filter",0.016 s⁻¹
same,"-Initial slope, k","[2]; Group 2: heavy load, 2 filters",0.017 s⁻¹
same,"-Initial slope, k","[2]; Group 2: heavy load, brass",0.012 s⁻¹
same,"-Initial slope, k","[2]; Group 2: heavy load, mat",0.013 s⁻¹
same,"-Initial slope, k",[2]; Group 2: heavy load,0.016 s⁻¹
same,"Initial slope, average",[2]; Group 2 runs with the heavy loads,0.0145 s⁻¹
same,"Initial slopes, range over runs",[2]; Group 2 runs with the heavy loads (all variants),0.012 to 0.017 s⁻¹
same,"-Initial slope, k","[2]; Group 3: heavy load, 1 new towel",0.026 s⁻¹
same,"-Initial slope, k","[2]; Group 3: heavy load, 2 new towels",0.028 s⁻¹
same,"-Initial slope, k","[2]; Group 3: heavy load, 6/8 towel",0.019 s⁻¹
same,"Initial slope, average",[2]; Group 3 runs with the heavy loads and new towel,0.0243 s⁻¹
same,"Initial slopes, range over runs",[2]; Group 3 runs with the heavy loads and new towel (all variants),0.019 to 0.028 s⁻¹
same,"-Initial slope, k","[2]; Group 4: heavy load, 1 old towel",0.039 s⁻¹ and 0.025 s⁻¹
same,"Initial slope, average",[2]; Group 4 runs with the heavy loads and old towel,0.032 s⁻¹
same,"Initial slope, average",[2]; Group 5 runs with the cold validation loads and 15 minutes of pre-plasma,0.0095 s⁻¹
same,"Initial slope, average",[2]; Group 6 runs with the cold condensing validation loads with no pre-plasma,0.0164 s⁻¹
same,"Initial slope, average",[2]; [3],0.0195 s⁻¹
same,"Initial slope, average",[2]; [4],0.028 s⁻¹
same,Initial slope by type of load,"[2]; cold, condensing load",0.016 s⁻¹
same,Initial slope by type of load,[2]; heavy load,0.015 s⁻¹
same,Initial slope by type of load,[2]; heavy load with towel,> 0.020 s⁻¹
same,Initial slope by type of load,[2]; validation load,0.010 s⁻¹
